In patent US20250059131A1, “FLUORINATED CATIONIC LIPIDS FOR USE IN LIPID NANOPARTICLES” (Acuitas Therapeutics, Inc., priority 2021, published 2025):
Marks after values point to notes of the source that are not given here.

Assays:
[1] = system: luciferase expression in the liver; experiment: Luciferase mRNA in vivo evaluation using lipid nanoparticle compositions; parameters: species or system mice; settings: tail vein injection, 4 hours after administration, LNP formulation; for Liver Luc @ 0.5 mg/kg (ng luc/g): 0.5 mg mRNA/kg
Description: Lipid nanoparticles were prepared and tested according to the general procedures described in PCT Pub. Nos. WO 2015/199952 and WO 2017/004143, the full disclosures of which are incorporated herein by reference. Briefly, cationic lipid, DSPC, cholesterol and PEG-lipid were solubilized in ethanol at a molar ratio of about 50:10:38.5:1.5 or about 47.5:10:40.7:1.8. Lipid nanoparticles (LNP) were prepared at a total lipid to mRNA weight ratio of approximately 10:1 to 40:1. The mRNA is diluted to 0.2 mg/mL in 10 to 50 mM citrate or acetate buffer, pH 4. Syringe pumps were used to mix the ethanolic lipid solution with the mRNA aqueous solution at a ratio of about 1:5 to 1:3 (vol/vol) with total flow rates above 15 mL/min. The ethanol was then removed and the external buffer replaced with PBS by dialysis. Finally, the lipid nanoparticles were filtered through a 0.2 µm pore sterile filter. Lipid nanoparticle particle size was approximately 55-95 nm diameter, and in some instances approximately 70-90 nm diameter as determined by quasi-elastic light scattering using a Malvern Zetasizer Nano ZS (Malvern, UK).
Studies were performed in 6-8 week old female C57BL/6 mice (Charles River) or 8-10 week old CD-1 (Harlan) mice (Charles River) according to guidelines established by an institutional animal care committee (ACC) and the Canadian Council on Animal Care (CCAC). Varying doses of mRNA-lipid nanoparticle were systemically administered by tail vein injection and animals euthanized at a specific time point (e.g., 4 hours) post-administration. Liver and spleen were collected in pre-weighed tubes, weights determined, immediately snap frozen in liquid nitrogen and stored at −80° C. until processing for analysis.
For liver, approximately 50 mg was dissected for analyses in a 2 mL FastPrep tubes (MP Biomedicals, Solon OH). […] ceramic sphere (MP Biomedicals) is added to each tube and 500 μL of Glo Lysis Buffer—GLB (Promega, Madison WI) equilibrated to room temperature is added to liver tissue. Liver tissues were homogenized with the FastPrep24 instrument (MP Biomedicals) at 2×6.0 m/s for 15 seconds. Homogenate was incubated at room temperature for 5 minutes prior to a 1:4 dilution in GLB and assessed using SteadyGlo Luciferase assay system (Promega). Specifically, 50 μL of diluted tissue homogenate was reacted with 50 μL of SteadyGlo substrate, shaken for 10 seconds followed by 5 minute incubation and then quantitated using a CentroXS^3 LB 960 luminometer (Berthold Technologies, Germany). The amount of protein assayed was determined by using the BCA protein assay kit (Pierce, Rockford IL). Relative luminescence units (RLU) were then normalized to total μg protein assayed. To convert RLU to ng luciferase a standard curve was generated with QuantiLum Recombinant Luciferase (Promega).
The FLuc mRNA (L-6107 or L-7202) from Trilink Biotechnologies will express a luciferase protein, originally isolated from the firefly, photinus pyralis. FLuc is commonly used in mammalian cell culture to measure both gene expression and cell viability. It emits bioluminescence in the presence of the substrate, luciferin. This capped and poly-adenylated mRNA was fully substituted with respect to uridine and/or cytidine nucleosides.
(§1) Representative compounds of the disclosure shown in Table 2 were formulated using the following molar ratio: 50% cationic lipid/10% distearoylphosphatidylcholine (DSPC)/38.5% Cholesterol/1.5% PEG lipid 2-[2-(ω-methoxy(polyethyleneglycol2000)ethoxy]-N,N-ditetradecylacetamide) or 47.5% cationic lipid/10% DSPC/40.7% Cholesterol/1.8% PEG lipid. Relative activity was determined by measuring luciferase expression in the liver 4 hours following administration via tail vein injection as described in Example 1 or by measuring the amount of human IgG in mouse serum as described in example 2. […]

[2] = Determination of pKa of formulated lipids (TNS fluorescence assay in lipid nanoparticles); format: physicochemical; settings: cationic lipid formulated in LNP (cationic lipid/DSPC/cholesterol/PEG-lipid 47.5/10/40.7/1.8 mol %), pH of half-maximal fluorescence
Description: As described elsewhere, the pKa of formulated cationic lipids is correlated with the effectiveness of LNPs for delivery of nucleic acids (see Jayaraman et al, Angewandte Chemie, International Edition (2012), 51(34), 8529-8533; Semple et al, Nature Biotechnology 28, 172-176 (2010)). The preferred range of pKa is ˜5 to ˜7. The pKa of each cationic lipid was determined in lipid nanoparticles using an assay based on fluorescence of 2-(p-toluidino)-6-napthalene sulfonic acid (TNS). Lipid nanoparticles comprising cationic lipid/DSPC/cholesterol/PEG-lipid (47.5/10/40.7/1.8 mol %) in PBS at a concentration of 0.4 mM total lipid were prepared using the in-line process as described in Example 1. TNS was prepared as a […] stock solution in distilled water. Vesicles were diluted to 24 μM lipid in 2 mL of buffered solutions containing, 10 mM HEPES, 10 mM MES, 10 mM ammonium acetate, 130 mM NaCl, where the pH ranged from 2.5 to 11. An aliquot of the TNS solution was added to give a final concentration of 1 μM and following vortex mixing fluorescence intensity was measured at room temperature in a SLM Aminco Series 2 Luminescence Spectrophotometer using excitation and emission wavelengths of 321 nm and 445 nm. A sigmoidal best fit analysis was applied to the fluorescence data and the pKa was measured as the pH giving rise to half-maximal fluorescence intensity.

human IgG in mouse serum = experiment: Immunoglobulin G (IgG) mRNA in vivo evaluation using lipid nanoparticle compositions; parameters: species or system mice; settings: tail vein injection, 24 hours after administration, LNP formulation; for Serum IgG @ 0.3 mg/kg: 0.3 mg mRNA/kg; for Serum IgG @ 1.0 mg/kg: 1.0 mg mRNA/kg
Description: A lipid of structure (I), DSPC, cholesterol and PEG-lipid are solubilized in ethanol at a molar ratio of 50:10:38.5:1.5 or 47.5:10:40.7:1.8. Lipid nanoparticles (LNP) are prepared at a total lipid to mRNA weight ratio of approximately 10:1 to 40:1. Briefly, the mRNA is diluted to 0.2 mg/mL in 10 to 50 mM citrate buffer, pH 4 or 10 to 25 mM acetate buffer, pH 4. Syringe pumps are used to mix the ethanolic lipid solution with the mRNA aqueous solution at a ratio of about 1:5 to 1:3 (vol/vol) with total flow rates above 15 mL/min. The ethanol is then removed and the external buffer replaced with PBS by dialysis. Finally, the lipid nanoparticles are filtered through a 0.2 µm pore sterile filter.
Studies are performed in 6-8 week old CD-1/ICR mice (Envigo) according to guidelines established by an institutional animal care committee (ACC) and the Canadian Council on Animal Care (CCAC). Varying doses of mRNA-lipid nanoparticle are systemically administered by tail vein injection and animals euthanized at a specific time point (e.g., 24 hours) post-administration. The whole blood is collected, and the serum subsequentially separated by centrifuging the tubes of the whole blood at 2000× g for 10 minutes at 4° C. and stored at −80° C. until use for analysis.
For immunoglobulin G (IgG) ELISA (Life Diagnostics Human IgG ELISA kit), the serum samples are diluted at 100 to 15000 folds with 1× diluent solution. 100 μL of diluted serum is dispensed into anti-human IgG coated 96-well plate in duplicate alongside human IgG standards and incubated in a plate shaker at 150 rpm at 25° C. for 45 minutes. The wells are washed 5 times with 1× wash solution using a plate washer (400 μL/well). […] The absorbance is read at 450 nm (A450) with a microplate reader. The amount of human IgG in mouse serum is determined by plotting A450 values for the assay standard against human IgG concentration.
as §1, with “2. The activity was compared at a dose of 1.0 or 0.5 or 0.3 mg mRNA/kg and expressed as ng luciferase/g liver measured 4 hours after administration, as described in Example 1 or as μg IgG/mL serum measured 24 hours after administration, as described in Example 2.” for “2.”

| SMILES | Liver Luc @ 0.5 mg/kg (ng luc/g) [1] | pKa [2] | Serum IgG @ 0.3 mg/kg (human IgG in mouse serum) | Serum IgG @ 1.0 mg/kg (human IgG in mouse serum) | Liver Luc, determined at 0.3 mg/kg (ng luc/g) ([1]; 0.3 mg mRNA/kg) | Liver Luc, determined at 1.0 mg/kg (ng luc/g) ([1]; 1.0 mg mRNA/kg) |
| --- | --- | --- | --- | --- | --- | --- |
| CCCCCCCCCC(OC(=O)CCCCCCCN(CCO)CCCCCCCC(=O)OC(CCCCCCCCC)C(F)(F)C(F)(F)F)C(F)(F)C(F)(F)F (stereo not drawn) [Compound I-1, BIS(1,1,1,2,2-PENTAFLUORODODECAN-3-YL) 8,8′-((2-HYDROXYETHYL)AZANEDIYL)DIOCTANOATE] | 1233 ± 305 ng luc/g | 5.88 | – | – | – | – |
| CCCCCCCCCCN(CCCCCCCCCC)C(=O)C(F)CCCCCCN(CCCCCO)CCCCCCC(F)C(=O)N(CCCCCCCCCC)CCCCCCCCCC (stereo not drawn) [Compound I-9, 8,8′-((5-HYDROXYPENTYL)AZANEDIYL)BIS(N,N-DIDECYL-2-FLUOROOCTANAMIDE)] | – | – | 24.36 ± 4.39 µg/mL | 239.26 ± 39.80 µg/mL | – | – |
| CCCCCCCCCCN(CCCCCCCCCC)C(=O)C(F)CCCCCCN(C)CCCCCCC(F)C(=O)N(CCCCCCCCCC)CCCCCCCCCC (stereo not drawn) [Compound I-10, 8,8′-(METHYLAZANEDIYL)BIS(N,N-DIDECYL-2-FLUOROOCTANAMIDE)] | – | – | 12.94 ± 2.03 µg/mL | 142.26 ± 26.31 µg/mL | – | – |
| CCCCCCCCCC(OC(=O)CCCCCN(CCCCO)CCCCCC(=O)OC(CCCCCCCCC)C(F)(F)C(F)(F)F)C(F)(F)C(F)(F)F (stereo not drawn) [Compound I-3, BIS(1,1,1,2,2-PENTAFLUORODODECAN-3-YL) 6,6′-((4-HYDROXYBUTYL)AZANEDIYL)DIHEXANOATE] | 3633 ± 1416 ng luc/g | 6.03 | – | – | – | – |
| CCCCCCCCCC(OC(=O)CCCCCN(CCCCCO)CCCCCC(=O)OC(CCCCCCCCC)C(F)(F)C(F)(F)F)C(F)(F)C(F)(F)F (stereo not drawn) [Compound I-4, BIS(1,1,1,2,2-PENTAFLUORODODECAN-3-YL) 6,6′-((5-HYDROXYPENTYL)AZANEDIYL)DIHEXANOATE] | – | 5.88 | – | – | 1336 ± 329 ng luc/g | 14888 + 2009** ng luc/g |
| CCCCCCCCCC(OC(=O)CCCCCN(CCCO)CCCCCC(=O)OC(CCCCCCCCC)C(F)(F)C(F)(F)F)C(F)(F)C(F)(F)F (stereo not drawn) [Compound I-2, BIS(1,1,1,2,2-PENTAFLUORODODECAN-3-YL) 6,6′-((3-HYDROXYPROPYL)AZANEDIYL)DIHEXANOATE] | 511 ± 79 ng luc/g | 5.92 | – | – | – | – |
| CCCCCCCCCC(CC)OC(=O)CCCCCN(CCCCO)CCCCCC(=O)OC(CC)CCCCCCCCC (stereo not drawn) [I-3 analogue, reference compound] | 462 ± 425 ng luc/g | 6.62 | – | – | – | – |
